Reference: EPA's ToxValDB 9.5 (doi:10.2903/j.efsa.2013.3182)
≈ marks a conversion by molar mass, not a printed value.

Experiments:
Apis mellifera = details: acute, duration: 48 hours, mortality
Bibionidae = details: chronic/long-term; duration: 28 days
Canidae = details: oral, Dog Other, organ weight
Colinus virginianus = details: acute, oral, mortality
Daphnia magna = details: chronic/long-term; duration: 21 days; reproduction
Oncorhynchus mykiss = details: acute; duration: 96 hours; mortality
Pimephales promelas = details: chronic/long-term; duration: 40 days; time to hatch
Rattus norvegicus = details: acute; oral; mortality
Tagia sp. = details: acute; duration: 14 days; mortality
Aphidius rhopalosiphi = test: LR50; higher = less toxic; details: chronic/long-term; duration: 7 days; mortality
Typhlodromus pyri = test: LR50; higher = less toxic; details: chronic/long-term; duration: 7 days; mortality

In the case of `COc1cc(OC)n2nc(NS(=O)(=O)c3c(C(F)(F)F)ccnc3OC)nc2n1` [Pyroxsulam], the LD50 (Anas platyrhynchos; acute, oral, unspecified, mortality) is reported as > 2000 mg/kg-day, the NOAEL (Anas platyrhynchos; reproductive) is reported as 46.3 mg/kg-day and the LD50 (Apis mellifera; dermal) is reported as > 100 µg/piece. The LD50 (Apis mellifera; oral, unspecified) was > 107 µg/piece, the NOEC (Bibionidae) was 100 mg/L and the NOAEL (Canidae; chronic, duration: 1 years) was 89 mg/kg-day. The NOAEL (Canidae; subchronic, duration: 90 days) was 100 mg/kg-day, the LC50 (Colinus virginianus; diet) was > 988 mg/kg-day and the LD50 (Colinus virginianus) was > 2000 mg/kg-day. It also gave an NOEC (Daphnia magna) of 10.4 mg/L, an LC50 (Oncorhynchus mykiss) of 5.9 µg/mL (≈ 13.6 µM) and an NOEC (Pimephales promelas) of 10.1 mg/L. For the same compound, the LD50 (Rattus norvegicus) was > 2000 mg/kg-day, the LC50 (Tagia sp.) was > 10000 mg/kg and the LR50 (Aphidius rhopalosiphi) was > 37.5 g/ha. For the same compound, the LR50 (Typhlodromus pyri) was > 37.5 g/ha.
